From patent US8962859B2, “Spiro-amino-imidazo-fused heterocyclic compounds as beta-secretase modulators and methods of use” (Amgen Inc., priority 2011, dated 2015)

How the values were obtained:
[1] = tested on: gamma-secretase; settings: cited from earlier work
[2] = biological target: BACE 1 (Homo sapiens (Human), UniProt P56817); experiment: In vitro enzymatic BACE FRET assay; assay type: biochemical; settings: average IC50; acetate buffer pH 4.2, enzyme 0.2 nM, FRET substrate 50 nM
Procedure: In Vitro Enzymatic BACE FRET (Fluorescence Resonance Energy Transfer) Assay (Enzyme Assay Data in the Example Table I)
The assay buffer used in this screen is 0.05 M acetate, pH 4.2, 10% DMSO final, 100 uM genapol (which is a nonionic detergent, below its Critical Micelle Concentration). The Beta Secretase enzyme (0.2 nM) is pre-incubated for one hour with inhibitors, typically in about 1 uL of DMSO according to a serial dilution, are added thereto. This assay is effectively started by the addition of FRET substrate (50 nM) and the combination is incubated for one hour. The FRET assay is terminated with by addition of Tris buffer, which raises the pH to neutrality, and the fluorescence is determined. The FRET substrate is a peptide with commercially available fluorophore and quencher, on opposite sides of the BACE cleavage site. Proteolytic cleavage of the FRET substrate releases quenching of fluorescence (excitation 488 nm and […]).

[3] = tested on: Aβ 40 levels in cells stably expressing Amyloid Precursor Protein (APP); experiment: In vitro BACE cell-based assay (HEK cell assay), Aβ40 sandwich ELISA; settings: average IC50, inhibition of Aβ40 in conditioned medium after 24 h
Procedure: The cell-based assay measures inhibition or reduction of Aβ40 in conditioned medium of test compound treated cells expressing amyloid precursor protein.
Cells stably expressing Amyloid Precursor Protein (APP) were plated at a density of 40K cells/well in 96 well plates (Costar). The cells were cultivated for 24 hours at 37° C. and 5% CO2 in DMEM supplemented with 10% FBS. The test compounds were then added to cells in 10-point dose response concentrations with the starting concentration being either 100 μM or 10 μM. The compounds were diluted from stock solutions in DMSO and the final DMSO concentration of the test compounds on cells was 0.1%. After 24 h of incubation with the test compounds the supernatant conditioned media was collected and the Aβ 40 levels were determined using a sandwich ELISA. The IC50 of the compound was calculated from the percent of control or percent inhibition of Aβ 40 as a function of the concentration of the test compound.
The sandwich ELISA to detect Aβ 40 was performed in 96 well microtiter plates, which were pre-treated with goat anti-rabbit IgG (Pierce). The capture and detecting antibody pair that were used to detect Aβ 40 from cell supernatants were affinity purified pAb40 (Biosource) and biotinylated 6E10 (Signet Labs Inc.), respectively.
Cellular supernatants were incubated with the capture antibody for 3 h at 4° C., followed by 3 wash steps in TBS-tween (0.05%). The detecting antibody incubation was for 2 h at 4° C., again followed by the wash steps as described previously. The final readout of the ELISA is Time-Resolved Fluorescence (counts per minute) using Delfia reagents Streptavidin-Europium and Enhancement solutions (Perkin Elmer) and the Victor 2 multilabel counter (Perkin Elmer).

Sequence of BACE 1 (P56817 46-501): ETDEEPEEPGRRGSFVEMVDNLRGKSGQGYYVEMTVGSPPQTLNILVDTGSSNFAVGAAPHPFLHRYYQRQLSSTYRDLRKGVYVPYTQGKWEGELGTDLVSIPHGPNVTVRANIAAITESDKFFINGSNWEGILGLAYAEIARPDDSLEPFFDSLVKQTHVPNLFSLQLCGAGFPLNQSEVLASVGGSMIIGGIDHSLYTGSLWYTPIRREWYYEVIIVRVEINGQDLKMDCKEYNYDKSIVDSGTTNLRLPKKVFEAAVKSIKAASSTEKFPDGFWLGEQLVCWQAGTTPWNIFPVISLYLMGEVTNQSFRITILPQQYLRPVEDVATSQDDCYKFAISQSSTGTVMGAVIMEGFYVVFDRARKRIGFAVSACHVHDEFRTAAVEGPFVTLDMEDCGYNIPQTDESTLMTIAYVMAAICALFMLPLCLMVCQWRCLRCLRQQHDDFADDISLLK

IC50 [2] [nM]	IC50 ([3]; Homo sapiens, HEK293) [nM]	Compound	notch selectivity (amyloid-beta precursor protein selective) [1] [×]	IC50 [3] [nM]
–	–	NC(=O)[C@@H](CCC(F)(F)F)N(Cc1ccc(-c2ncon2)cc1F)S(=O)(=O)c1ccc(Cl)cc1 [BMS-708163]	193	–
9	58	COc1cc(F)c2c(c1)C1(N=C(N)n3ccnc31)c1cc(-c3cccnc3F)ccc1O2 (stereo not shown) [Example 11, 4′-fluoro-7′-(2-fluoro-3-pyridinyl)-2′-methoxyspiro[imidazo[1,5-a]imidazole-7,9′-xanthen]-5-amine]	–	–
0.4	28	Cc1ccc(-c2cc(F)c3c(c2)[C@@]2(N=C(N)n4ccnc42)c2cc(-c4cccnc4F)ccc2O3)cc1 [Example 15, (7S)-4′-fluoro-7′-(2-fluoro-3-pyridinyl)-2′-(4-methylphenyl)spiro[imidazo[1,5-a]imidazole-7,9′-xanthen]-5-amine]	–	–
22	78	COc1cc(F)c2c(c1)[C@@]1(N=C(N)N3CCCN=C31)c1cc(-c3cccnc3F)ccc1O2 [Example 10, (7S)-4′-fluoro-7′-(2-fluoropyridin-3-yl)-2′-methoxy-3,4-dihydro-2H-spiro[imidazo[1,5-a]pyrimidine-8,9′-xanthen]-6-amine (7R)-4′-fluoro-7′-(2-fluoropyridin-3-yl)-2′-methoxy-3,4-dihydro-2H-spiro[imidazo[1,5-a]pyrimidine-8,9′-xanthen]-6-amine]	–	–
23	173	NC1=N[C@@]2(c3cc(-c4cccnc4F)ccc3Oc3c(F)cc(C4=CCCOC4)cc32)c2nccn21 [Example 12, (7R)-2′-(5,6-dihydro-2H-pyran-3-yl)-4′-fluoro-7′-(2-fluoro-3-pyridinyl)spiro[imidazo[1,5-a]imidazole-7,9′-xanthen]-5-amine]	–	–
0.4	29	NC1=N[C@]2(c3cc(-c4cccnc4F)ccc3Oc3c(F)cc(C4=CCCOC4)cc32)c2nccn21 [Example 13, (7S)-2′-(5,6-dihydro-2H-pyran-3-yl)-4′-fluoro-7′-(2-fluoro-3-pyridinyl)spiro[imidazo[1,5-a]imidazole-7,9′-xanthen]-5-amine]	–	–
114	4160	Cc1ccc(-c2cc(F)c3c(c2)[C@]2(N=C(N)n4ccnc42)c2cc(-c4cccnc4F)ccc2O3)cc1 [Example 14, (7R)-4′-fluoro-7′-(2-fluoro-3-pyridinyl)-2′-(4-methylphenyl)spiro[imidazo[1,5-a]imidazole-7,9′-xanthen]-5-amine]	–	–
0.3	86	NC1=N[C@@]2(c3cc(-c4cccnc4F)ccc3Oc3c(F)cc(-c4ccnc(F)c4)cc32)c2nccn21 [Example 8B, (7R)-4′-fluoro-7′-(2-fluoro-3-pyridinyl)-2′-(2-fluoro-4-pyridinyl)spiro[imidazo[1,5-a]imidazole-7,9′-xanthen]-5-amine]	–	–
189	3970	NC1=N[C@]2(c3cc(-c4cccnc4F)ccc3Oc3c(F)cc(N4CCOCC4)cc32)c2nccn21 [Example 9A, (7S)-4′-fluoro-7′-(2-fluoro-3-pyridinyl)-2′-(4-morpholinyl)spiro[imidazo[1,5-a]imidazole-7,9′-xanthen]-5-amine]	–	–
0.7	31	NC1=N[C@@]2(c3cc(-c4cccnc4F)ccc3Oc3c(F)cc(N4CCOCC4)cc32)c2nccn21 [Example 9B, (7R)-4′-fluoro-7′-(2-fluoro-3-pyridinyl)-2′-(4-morpholinyl)spiro[imidazo[1,5-a]imidazole-7,9′-xanthen]-5-amine]	–	–
10	138	NC1=N[C@]2(c3cc(-c4cccnc4F)ccc3Oc3c(F)cc(-c4ccnc(F)c4)cc32)c2nccn21 [Example 8A, (7S)-4′-fluoro-7′-(2-fluoro-3-pyridinyl)-2′-(2-fluoro-4-pyridinyl)spiro[imidazo[1,5-a]imidazole-7,9′-xanthen]-5-amine]	–	–

Compound	IC50 [2] [nM]	IC50 ([3]; Homo sapiens, HEK293) [nM]	notch selectivity (amyloid-beta precursor protein selective) [1] [×]	IC50 [3] [nM]
NC1=N[C@]2(c3cc(-c4cccnc4F)ccc3Oc3c(F)cc(N4CCC(F)(F)CC4)cc32)c2nccn21 [Example 17, (7R)-2′-(4,4-difluoro-1-piperidinyl)-4′-fluoro-7′-(2-fluoro-3-pyridinyl)spiro[imidazo[1,5-a]imidazole-7,9′-xanthen]-5-amine, (7S)-2′-(4,4-difluoro-1-piperidinyl)-4′-fluoro-7′-(2-fluoro-3-pyridinyl)spiro[imidazo[1,5-a]imidazole-7,9′-xanthen]-5-amine]	0.7	–	–	51
(7R)-2′-(3,6-dihydro-2H-pyran-4-yl)-4′-fluoro-7′-(2-fluoro-3-pyridinyl)spiro[imidazo[1,5-a]imidazole-7,9′-xanthen]-5-amine, (7S)-2′-(3,6-dihydro-2H-pyran-4-yl)-4′-fluoro-7′-(2-fluoro-3-pyridinyl)spiro[imidazo[1,5-a]imidazole-7,9′-xanthen]-5-amine [Example 16]	0.6	–	–	39
